{
  "source": "paper PMC5876397",
  "about": "“An advanced human in vitro co-culture model for translocation studies across the placental barrier” (Scientific Reports, 2018)",
  "key": {"[1]": {"system": "BeWo b30 / HPEC-A2 co-culture", "experiment": "Sodium fluorescein (Na-F) exclusion assay, co-culture", "type": "in vitro ADME, human", "conditions": "day 3 of cultivation, 5 µM Na-F, 3 h incubation", "protocol": "(§1) To determine barrier formation, exclusion of Na-F was determined daily for 4 d. 0.5 ml of 5 µM Na-F (Sigma-Aldrich, Buchs, Switzerland) was added to the apical chamber and 1.5 ml EM (without phenol red) to the basal chamber."}, "BeWo b30 monolayer [2]": {"system": "BeWo b30 monolayer", "procedure": "(§2) Polycarbonate Transwell® inserts (pore size 3.0 µm, growth area 1.12 cm^2, apical volume 0.5 ml, basolateral volume 1.5 ml; Corning®, Sigma-Aldrich, Buchs, Switzerland) were pre-coated with 50 µg/ml human placental collagen IV (Sigma-Aldrich, Buchs, Switzerland) for 1 h at 37 °C/5% CO2 (200 µl on both sides). Then the membrane was washed twice with phosphate buffered saline (PBS, pH 7.4, Sigma-Aldrich, Steinheim, Germany). Translocation experiments were done either with BeWo or HPEC monocultures or with both cell lines co-cultivated on a membrane. For the BeWo monolayer 1.5 × 10^5 cells in 500 µl EM were added apically and 1.5 ml EM basolaterally. For the HPEC monolayer the cells were seeded on the basolateral side of the membrane (Fig. 5a–d). Therefore, the reversed insert was placed in a 6-well plate (TPP, Faust AG, Schaffhausen, Switzerland), which had been filled with 1 ml sterile PBS to ensure a humid surrounding. Small rubber spaces (1.5 mm thick) were placed in each corner of the plate in order to slightly lift the lid to prevent direct contact of the lid with the membrane. This enables the adhesion of the drop to the lid, thereby avoiding medium loss as well as cell aggregation in the center. 1 × 10^5 HPECs in 200 µl EM were added to the membrane and the lid was immediately placed on the plate. After 2 h of incubation (37 °C, 5% CO2), the insert was placed into a 12-well plate with fresh EM (0.5 ml apical and 1.5 ml basolateral). For the co-culture, the steps described above for the monocultures were done, starting with the HPEC layer. The inserts were cultivated for 3 d at 37 °C/5% CO2 in EM (medium change after 48 h) under static conditions.\n(§3) Translocation studies were performed with co-cultured membranes as well as separate monolayers (BeWo on the apical or HPEC on the basolateral side of the insert) cultivated for 3 d as described above. […] At each time point (0, 0.25, 2, 4, 6, 8, 24 h) samples (50 µl) were taken from the basolateral chamber and renewed with fresh medium. […] Only differences were the use of EM with phenol red and sample volumes of 200 µl (basolateral) at each time point (0, 0.25, 1, 2, 6 h). Analysis of these samples was done by high performance liquid chromatography (HPLC). These studies were conducted in static and shaken (horizontal shaking at 50 rpm) conditions to determine the potential influence of simple shaking on transfer rates.\n(§4) The mass transported (ΔQn) was calculated for each time point and corrected for the mass taken before:1 ΔQn=Cn∗Vw+∑j=1n−1Vs∗Cj with the concentration measured at time tn (Cn), the volume of the well (Vw, 1.5 ml) and the sample volume (Vs). The sum of the amount removed during previous sampling is added respectively (Σ). Results were then expressed as basolateral amount of the initial dose (ID) in %. […] The permeability factor was calculated with the following two equations:2 P=ΔQ/Δt/A∗C0 3 Pe=1/(1/Pc−1/Pm) where the permeability factor (P; cm s^−1) is first calculated as the quotient of the amount transported (ΔQ; mg) at a specific time point (Δt; sec) divided by the product of the membrane surface area (cm^2) and the initial concentration of the substance (C0; mg cm^−3). Pe describes the apparent permeability factor corrected for the influence of the membrane. Therefore, the permeability value across the membrane Pm was subtracted from the permeability across the cells (Pc; monolayer or co-culture)."}, "HPEC-A2 monolayer [3]": {"system": "HPEC-A2 monolayer", "experiment": "Sodium fluorescein (Na-F) exclusion assay, HPEC monoculture", "type": "in vitro ADME, human", "conditions": "after 3 d of cultivation, 5 µM Na-F, 3 h incubation", "protocol": "as §1"}, "BeWo b30 monolayer [4]": {"system": "BeWo b30 monolayer", "experiment": "Sodium fluorescein (Na-F) exclusion assay, BeWo monoculture", "type": "in vitro ADME, human", "conditions": "day 3 of cultivation, 5 µM Na-F, 3 h incubation", "protocol": "as §1"}, "HPEC-A2 monolayer [5]": {"system": "HPEC-A2 monolayer", "procedure": "as §2, §3, §4"}, "[6]": {"system": "BeWo b30 / HPEC-A2 co-culture", "procedure": "as §2, §3, §4"}, "BeWo cells": {"system": "BeWo cells", "conditions": "cited from earlier work"}, "BeWo monolayer": {"system": "BeWo monolayer", "conditions": "cited from earlier work"}, "[7]": {"experiment": "Translocation study across BeWo monolayer on collagen-coated 3 µm polycarbonate Transwell insert", "conditions": "human; for Papp at 2 h, 100 µM: BeWo monolayer", "procedure": "as §2, §3, §4"}, "BeWo b30 monolayer [8]": {"system": "BeWo b30 monolayer", "experiment": "Translocation study across BeWo monolayer on collagen-coated 3 µm polycarbonate Transwell insert", "conditions": "BeWo layer, after 6 h, static, 100 µM", "procedure": "as §2, §3, §4"}, "[9]": {"experiment": "Translocation across control (empty collagen-coated) insert membrane", "conditions": "not told, Permeability factor P2h", "procedure": "as §2\n(§5) Translocation studies were performed with co-cultured membranes as well as separate monolayers (BeWo on the apical or HPEC on the basolateral side of the insert) cultivated for 3 d as described above. […] At each time point (0, 0.25, 2, 4, 6, 8, 24 h) samples (50 µl) were taken from the basolateral chamber and renewed with fresh medium. […]\n(§6) The mass transported (ΔQn) was calculated for each time point and corrected for the mass taken before:1 ΔQn=Cn∗Vw+∑j=1n−1Vs∗Cj with the concentration measured at time tn (Cn), the volume of the well (Vw, 1.5 ml) and the sample volume (Vs). […] Results were then expressed as basolateral amount of the initial dose (ID) in %. […] The permeability factor was calculated with the following two equations:2 P=ΔQ/Δt/A∗C0 3 Pe=1/(1/Pc−1/Pm) where the permeability factor (P; cm s^−1) is first calculated as the quotient of the amount transported (ΔQ; mg) at a specific time point (Δt; sec) divided by the product of the membrane surface area (cm^2) and the initial concentration of the substance (C0; mg cm^−3). […]"}, "[10]": {"experiment": "Translocation study across HPEC monolayer on collagen-coated 3 µm polycarbonate Transwell insert", "conditions": "human", "procedure": "as §2, §3, §4"}, "HPEC-A2 monolayer [11]": {"system": "HPEC-A2 monolayer", "experiment": "Translocation study across HPEC monolayer on collagen-coated 3 µm polycarbonate Transwell insert", "conditions": "after 6 h, static, 100 µM", "procedure": "as §2, §3, §4"}, "[12]": {"experiment": "Translocation study across BeWo/HPEC co-culture (placental barrier model)", "conditions": "human", "procedure": "as §2, §3, §4"}, "[13]": {"system": "BeWo b30 / HPEC-A2 co-culture", "experiment": "Translocation study across BeWo/HPEC co-culture (placental barrier model)", "conditions": "after 6 h, static, 100 µM", "procedure": "as §2, §3, §4"}, "[14]": {"conditions": "not told, 2 h", "procedure": "as §2, §5, §6"}, "in vitro [15]": {"experiment": "in vitro", "conditions": "human", "procedure": "as §2, §3, §4"}, "in vitro [16]": {"experiment": "in vitro", "conditions": "not told, Permeability factor P2h", "procedure": "as §2, §5, §6"}, "[17]": {"conditions": "Apparent permeability factor Pe, 2h, shaken (50 rpm), median ± mad"}, "[18]": {"conditions": "Permeability factor P2h, shaken, without subtraction of Pmembrane"}, "[19]": {"conditions": "Permeability factor P2h, static, without subtraction of Pmembrane"}, "[20]": {"conditions": "Apparent permeability factor Pe, 2h, static, median ± mad"}},
  "note": "Like-named read-outs stand apart in the source and are kept apart here.",
  "data": [
    {"compound": "O=C([O-])c1ccccc1-c1c2ccc(=O)cc-2oc2cc([O-])ccc12.[Na+].[Na+]", "note": "[Na-F, sodium fluorescein]", "values": [
      {"measurement": "Na-F translocation, basolateral amount of ID", "setting": "[1]", "result": "0.5 % of ID"},
      {"measurement": "Permeability factor P2h", "setting": "BeWo b30 monolayer [2]", "result": "2.5 ± 0.4 x 10-6 cm s-1"},
      {"measurement": "Transport, basolateral amount of the initial dose (ID)", "setting": "BeWo b30 monolayer [2]", "result": 34.5, "unit": "%"},
      {"measurement": "Na-F translocation, basolateral amount of ID", "setting": "HPEC-A2 monolayer [3]", "result": "14.0 % of ID"},
      {"measurement": "Na-F translocation, basolateral amount of ID", "setting": "BeWo b30 monolayer [4]", "result": "0.5 % of ID"},
      {"measurement": "Transport, basolateral amount of the initial dose (ID)", "setting": "HPEC-A2 monolayer [5]", "result": 77.0, "unit": "%"},
      {"measurement": "Apparent permeability factor Pe, 2h", "setting": "[6]", "result": "1.1 ± 1.1 × 10^−6 cm s^−1"},
      {"measurement": "Permeability factor P2h", "setting": "[6]", "result": "1.0 ± 1.0 x 10-6 cm s-1"},
      {"measurement": "Transport, basolateral amount of the initial dose (ID)", "setting": "[6]", "result": 35.1, "unit": "%"},
      {"measurement": "Viability of BeWo cells", "setting": "BeWo cells; previous publications ref 47, 64", "result": "did not affect the viability"}
    ]},
    {"compound": "COc1ccc2c(c1)c(CC(=O)O)c(C)n2C(=O)c1ccc(Cl)cc1", "note": "[indomethacin]", "values": [
      {"measurement": "Permeability P1h", "setting": "BeWo monolayer; BeWo monoculture transfer model, static conditions, Li et al. ref 47", "result": 23.2, "unit": "×10⁻⁶ cm/s"},
      {"measurement": "Papp at 2 h, 100 µM", "setting": "[7]; [17]", "result": "37.2 ± 11.9", "unit": "×10⁻⁶ cm/s"},
      {"measurement": "Papp at 2 h, 100 µM", "setting": "[7]; Apparent permeability factor Pe, 2h, static, apical to basolateral, median ± mad", "result": "39.5 ± 8", "unit": "×10⁻⁶ cm/s"},
      {"measurement": "Papp at 1 h, 100 µM", "setting": "[7]; Permeability P1h, this study, static, compared with BeWo monolayer literature values", "result": 19.9, "unit": "×10⁻⁶ cm/s"},
      {"measurement": "Papp at 2 h, 100 µM", "setting": "[7]; [18]", "result": "21.7 ± 0.3", "unit": "×10⁻⁶ cm/s"},
      {"measurement": "Papp at 2 h, 100 µM", "setting": "[7]; [19]", "result": "19 ± 3.5", "unit": "×10⁻⁶ cm/s"},
      {"measurement": "Transport, basolateral amount of the initial dose (ID)", "setting": "BeWo b30 monolayer [8]", "result": 45.9, "unit": "%"},
      {"measurement": "Papp at 2 h", "setting": "[9]; shaken", "result": "39.6 ± 6.5", "unit": "×10⁻⁶ cm/s"},
      {"measurement": "Papp at 2 h", "setting": "[9]; static, median ± mad", "result": "36.4 ± 1.1", "unit": "×10⁻⁶ cm/s"},
      {"measurement": "Papp at 2 h, 100 µM", "setting": "[10]; [17]", "result": "22.7 ± 0.4", "unit": "×10⁻⁶ cm/s"},
      {"measurement": "Papp at 2 h, 100 µM", "setting": "[10]; [20]", "result": "19 ± 0.1", "unit": "×10⁻⁶ cm/s"},
      {"measurement": "Papp at 2 h, 100 µM", "setting": "[10]; [18]", "result": "14.6 ± 1.2", "unit": "×10⁻⁶ cm/s"},
      {"measurement": "Papp at 2 h, 100 µM", "setting": "[10]; [19]", "result": "12.6 ± 0.6", "unit": "×10⁻⁶ cm/s"},
      {"measurement": "Transport, basolateral amount of the initial dose (ID)", "setting": "HPEC-A2 monolayer [11]", "result": 42.9, "unit": "%"},
      {"measurement": "Papp at 2 h, 100 µM", "setting": "[12]; [17]", "result": "30.7 ± 1.2", "unit": "×10⁻⁶ cm/s"},
      {"measurement": "Papp at 2 h, 100 µM", "setting": "[12]; [20]", "result": "26.7 ± 0.2", "unit": "×10⁻⁶ cm/s"},
      {"measurement": "Papp at 2 h, 100 µM", "setting": "[12]; [18]", "result": "17.3 ± 0.8", "unit": "×10⁻⁶ cm/s"},
      {"measurement": "Papp at 2 h, 100 µM", "setting": "[12]; [19]", "result": "15.3 ± 1.1", "unit": "×10⁻⁶ cm/s"},
      {"measurement": "Transport, basolateral amount of the initial dose (ID)", "setting": "[13]", "result": 41.5, "unit": "%"}
    ]},
    {"compound": "Cc1cc(=O)n(-c2ccccc2)n1C", "note": "[antipyrine]", "values": [
      {"measurement": "Permeability Pe,1h", "setting": "BeWo monolayer", "result": 58, "unit": "×10⁻⁶ cm/s"},
      {"measurement": "Permeability factor P2h", "setting": "[14]", "result": "35.3 ± 0.7"},
      {"measurement": "Apparent permeability factor Pe, 2h", "setting": "BeWo b30 monolayer [2]; human, 2 h, 100 µM", "result": "106.4 ± 8.2 × 10^−6 cm s^−1"},
      {"measurement": "Permeability factor P2h", "setting": "BeWo b30 monolayer [2]; human, 2 h, 100 µM", "result": "26.5 ± 1.1"},
      {"measurement": "Transport, basolateral amount of the initial dose (ID)", "setting": "BeWo b30 monolayer [2]; human, 6 h, 100 µM", "result": 74.7, "unit": "%"},
      {"measurement": "Papp at 1 h, 100 µM", "setting": "in vitro [15]; Permeability P1h", "result": 36.2, "unit": "×10⁻⁶ cm/s"},
      {"measurement": "Papp at 1 h, 100 µM", "setting": "in vitro [15]; Permeability Pe, 1h", "result": 79.3, "unit": "×10⁻⁶ cm/s"},
      {"measurement": "Apparent permeability factor Pe, 2h", "setting": "HPEC-A2 monolayer [5]; human, 2 h, 100 µM", "result": "76.5 ± 7.0 × 10^−6 cm s^−1"},
      {"measurement": "Permeability factor P2h", "setting": "HPEC-A2 monolayer [5]; human, 2 h, 100 µM", "result": "24.1 ± 1.0"},
      {"measurement": "Transport, basolateral amount of the initial dose (ID)", "setting": "HPEC-A2 monolayer [5]; human, 6 h, 100 µM", "result": 71.4, "unit": "%"},
      {"measurement": "Papp at 2 h", "setting": "in vitro [16]", "result": "50 ± 3.4", "unit": "×10⁻⁶ cm/s"},
      {"measurement": "Transport, basolateral amount of the initial dose (ID)", "setting": "[6]; human, 6 h, 100 µM", "result": 80.9, "unit": "%"},
      {"measurement": "Viability of BeWo cells", "setting": "BeWo cells", "result": "did not affect the viability"}
    ]}
  ]
}
